Values of other authors in patent US6528013B1, “Uncomplexed cyclodextrin compositions for odor and wrinkle control” (The Procter & Gamble Company, priority 1998, dated 2003).

| solubility in water | Structure (SMILES) |
| --- | --- |
| about 2.67% | OCCOc1ccccc1 [2-phenoxyethanol] |
| about 25% | O=[N+]([O-])C(Br)(CO)CO [Bronopol, 2-bromo-2-nitropropane-1,3-diol] |
| about 0.46% | O=[N+]([O-])C1(Br)COCOC1 [Bronidox L, 5-bromo-5-nitro-1,3-dioxane] |
| about 1.8% | [H]/N=C(\N/C(=N/[H])NCCCCCCNC(=N)NC(=N)Nc1ccc(Cl)cc1)Nc1ccc(Cl)cc1 [chlorhexidine diacetate, 1,1′-hexamethylene bis(5-(p-chlorophenyl)biguanide), reference compound] |
| about 2% | OCCc1ccccc1 [2-phenylethanol] |
| about 70% | [H]/N=C(\N/C(=N/[H])NCCCCCCNC(=N)NC(=N)Nc1ccc(Cl)cc1)Nc1ccc(Cl)cc1 [chlorhexidine digluconate, 1,1′-hexamethylene bis(5-(p-chlorophenyl)biguanide), reference compound] |
| about 4% | OCc1ccccc1 [benzyl alcohol] |
| more than 50% | CC1(C)C(=O)N(CO)C(=O)N1CO [DMDM hydantoin, 1,3-bis(hydroxymethyl)-5,5-dimethyl-2,4-imidazolidinedione] |
| about 0.8% | CC(C)(O)C(Cl)(Cl)Cl [chlorobutanol, 1,1,1-Trichloro-2-methylpropan-2-ol, reference compound] |

| Structure (SMILES) | solubility in water |
| --- | --- |
| ClC=CC[N+]12CN3CN(CN(C3)C1)C2.[Cl-] [Dowicil 200, 1-(3-Chlorallyl)-3,5,7-triaza-1-azoniaadamantane chloride] | freely soluble in water |
| [Na+].[O-][n+]1ccccc1[S-] [sodium pyrithione] | about 50% |
